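Results reflect a 48-hour exposure of cells in 96-well plates to compound at five concentrations. GI50 marks 50% less growth.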 Activity calls are given as the source filed them. Cut-off read from the data, not from the text of the source: active = GI50 up to about 1.1 µM and inactive = higher.
Experiments:
Assay in all cases: NCI-60 cell line screen, 48 h
A498 = test system: A498
A549 = test system: A549
CAKI-1 = test system: CAKI-1
CCRF-CEM = test system: CCRF-CEM
EKVX = test system: EKVX
HCT-116 = test system: HCT-116
HT-29 = test system: HT-29
MDA-MB-435 = test system: MDA-MB-435
Malme-3M = test system: Malme-3M
NCI-H226 = test system: NCI-H226
NCI-H23 = test system: NCI-H23
NCI-H522 = test system: NCI-H522
NCI/ADR-RES = test system: NCI/ADR-RES
OVCAR-3 = test system: OVCAR-3
RPMI-8226 = test system: RPMI-8226
RXF 393 = test system: RXF 393
SF-268 = test system: SF-268
SN12C = test system: SN12C
SNB-19 = test system: SNB-19
SW-620 = test system: SW-620

Structure (SMILES)	GI50 (A498)	GI50 (A549)	GI50 (CAKI-1)	GI50 (CCRF-CEM)	GI50 (EKVX)	GI50 (HCT-116)	GI50 (HT-29)	GI50 (MDA-MB-435)	GI50 (Malme-3M)	GI50 (NCI-H226)	GI50 (NCI-H23)	GI50 (NCI-H522)	GI50 (NCI/ADR-RES)	GI50 (OVCAR-3)	GI50 (RPMI-8226)	GI50 (RXF 393)	GI50 (SF-268)	GI50 (SN12C)	GI50 (SNB-19)	GI50 (SW-620)
CC(=O)Nc1cc2ccc(=O)oc2cc1Cl	> 100 µM (inactive)	> 100 µM (inactive)	> 100 µM (inactive)	> 100 µM (inactive)	> 100 µM (inactive)	> 100 µM (inactive)	> 100 µM (inactive)	> 100 µM (inactive)	> 100 µM (inactive)	> 100 µM (inactive)	> 100 µM (inactive)	> 100 µM (inactive)	> 100 µM (inactive)	> 100 µM (inactive)	> 100 µM (inactive)	> 100 µM (inactive)	> 100 µM (inactive)	> 100 µM (inactive)	> 100 µM (inactive)	> 100 µM (inactive)
C=C1CC[C@@H](CCC2CCC3(OC2)O[C@]2(O)CC[C@@]3(C)OC2(C)C)C(C)(C)[C@H]1C/C=C1\CCOC1=O (some centres not stated)	13.3 µM (inactive)	8.89 µM (inactive)	35.1 µM (inactive)	10.4 µM (inactive)	1.11 µM (active)	0.354 µM (active)	4.93 µM (inactive)	14.3 µM (inactive)	16.7 µM (inactive)	3.91 µM (inactive)	0.444 µM (active)	5.32 µM (inactive)	1.78 µM (inactive)	15 µM (inactive)	1.9 µM (inactive)	14.9 µM (inactive)	27.2 µM (inactive)	16.6 µM (inactive)	51.5 µM (inactive)	33.3 µM (inactive)
Cn1c(-c2ccco2)ccc1-c1ccc(C=O)o1	92.3 µM (inactive)	> 100 µM (inactive)	13 µM (inactive)	27.5 µM (inactive)	48.8 µM (inactive)	24.2 µM (inactive)	44.9 µM (inactive)	68.1 µM (inactive)	> 100 µM (inactive)	> 100 µM (inactive)	94.6 µM (inactive)	> 100 µM (inactive)	33 µM (inactive)	45.6 µM (inactive)	29 µM (inactive)	> 100 µM (inactive)		77.6 µM (inactive)	> 100 µM (inactive)	33.4 µM (inactive)
C/C(Cl)=N/OC(=O)Nc1ccc(F)c([N+](=O)[O-])c1	19.5 µM (inactive)	26.2 µM (inactive)	1.79 µM (inactive)	2.13 µM (inactive)	16.3 µM (inactive)	3.89 µM (inactive)	19.6 µM (inactive)	14.5 µM (inactive)	2.65 µM (inactive)	26.4 µM (inactive)	20 µM (inactive)	1.81 µM (inactive)	30.3 µM (inactive)	19.2 µM (inactive)	2.65 µM (inactive)	12.1 µM (inactive)	15.4 µM (inactive)	7.57 µM (inactive)	20.1 µM (inactive)	3.71 µM (inactive)
CC(=O)OCC1OC(n2cnc3nc(Br)[nH]c(=O)c32)C(OC(C)=O)C1OC(C)=O (configuration not stated)	> 100 µM (inactive)	> 100 µM (inactive)	> 100 µM (inactive)	> 100 µM (inactive)	> 100 µM (inactive)	> 100 µM (inactive)	> 100 µM (inactive)	> 100 µM (inactive)	> 100 µM (inactive)	> 100 µM (inactive)	> 100 µM (inactive)	> 100 µM (inactive)	> 100 µM (inactive)	> 100 µM (inactive)	> 100 µM (inactive)	> 100 µM (inactive)	> 100 µM (inactive)	> 100 µM (inactive)	> 100 µM (inactive)	> 100 µM (inactive)
CC(=O)C(=N\Nc1ccc(Cl)cc1)/C(C)=N/c1ccc(C)cc1	11.9 µM (inactive)	29.3 µM (inactive)	49.3 µM (inactive)	11.2 µM (inactive)	21.3 µM (inactive)	36.8 µM (inactive)	22.5 µM (inactive)	30.4 µM (inactive)	20.7 µM (inactive)	29.6 µM (inactive)	38.1 µM (inactive)	19.7 µM (inactive)	25.6 µM (inactive)	24.6 µM (inactive)	18.7 µM (inactive)	23 µM (inactive)	35.6 µM (inactive)	45.7 µM (inactive)	63.1 µM (inactive)	41.6 µM (inactive)
COc1cc2c(c3c1c(=O)c1ccccc1n3C)C=CC1(CCCCC1)O2	5.96 µM (inactive)	0.446 µM (active)	0.764 µM (active)	2.55 µM (inactive)	> 7.94 µM (inactive)	2.88 µM (inactive)	2.61 µM (inactive)	2.38 µM (inactive)	3.43 µM (inactive)	8.07 µM (inactive)	> 7.67 µM (inactive)	3.96 µM (inactive)	3.65 µM (inactive)	3.53 µM (inactive)	0.455 µM (active)	0.822 µM (active)	4.48 µM (inactive)	6.28 µM (inactive)	> 7.18 µM (inactive)	6.92 µM (inactive)
NC(=S)N/N=C\c1nccc2ccccc12	0.21 µM (active)	0.413 µM (active)	0.33 µM (active)	0.27 µM (active)	0.302 µM (active)	0.44 µM (active)	0.485 µM (active)	0.388 µM (active)	1.73 µM (inactive)	0.184 µM (active)	0.314 µM (active)	0.908 µM (active)	0.285 µM (active)	0.281 µM (active)	0.267 µM (active)	0.357 µM (active)	0.216 µM (active)	0.262 µM (active)	0.531 µM (active)	0.561 µM (active)
O=C1c2c[nH]nc2C(c2ccccc2)N1c1ccccc1 (configuration not stated)	> 10 µM (inactive)	> 10 µM (inactive)	> 10 µM (inactive)	> 10 µM (inactive)	> 10 µM (inactive)	> 10 µM (inactive)	> 10 µM (inactive)	> 10 µM (inactive)	> 10 µM (inactive)	> 10 µM (inactive)	> 10 µM (inactive)	> 10 µM (inactive)	> 10 µM (inactive)	> 10 µM (inactive)	> 10 µM (inactive)	> 10 µM (inactive)	> 10 µM (inactive)	> 10 µM (inactive)	> 10 µM (inactive)	> 10 µM (inactive)
CC(=NNC(=S)Nc1cccc(C)c1)c1cccc(C(C)=NNC(=S)Nc2cccc(C)c2)n1	21.9 µM (inactive)	18.7 µM (inactive)	11.9 µM (inactive)	4.22 µM (inactive)	26.1 µM (inactive)	12.2 µM (inactive)	26.1 µM (inactive)	22.4 µM (inactive)	14.9 µM (inactive)	18.6 µM (inactive)	27.4 µM (inactive)	21.2 µM (inactive)	14.2 µM (inactive)	3.39 µM (inactive)	> 100 µM (inactive)	16.2 µM (inactive)	59.2 µM (inactive)	25.8 µM (inactive)	30.5 µM (inactive)	19 µM (inactive)
COc1ccc(OC)c2c(C)ccnc12	56.8 µM (inactive)	21.4 µM (inactive)	28.9 µM (inactive)	5.25 µM (inactive)	14.3 µM (inactive)	6.31 µM (inactive)	17.1 µM (inactive)	25.7 µM (inactive)	12.2 µM (inactive)	25.5 µM (inactive)	27.2 µM (inactive)	4.1 µM (inactive)	12.9 µM (inactive)	2.99 µM (inactive)	32.9 µM (inactive)	16.1 µM (inactive)	9.89 µM (inactive)	22.1 µM (inactive)	19.9 µM (inactive)	10.5 µM (inactive)
NCCN1C(=O)c2ccccc2C1(O)c1ccc(Cl)cc1 (configuration not stated)	14.2 µM (inactive)	23.9 µM (inactive)	24.5 µM (inactive)	25.4 µM (inactive)	21.3 µM (inactive)	17.8 µM (inactive)	19.6 µM (inactive)	15.3 µM (inactive)	14.1 µM (inactive)	48.8 µM (inactive)	36.8 µM (inactive)	14.2 µM (inactive)	37.4 µM (inactive)	23.6 µM (inactive)	17.3 µM (inactive)	17.3 µM (inactive)	27.1 µM (inactive)	35.2 µM (inactive)	23.1 µM (inactive)	18.5 µM (inactive)
O=C1CCCC(=O)N1n1c(Cc2ccccc2)n[nH]c1=O	> 100 µM (inactive)	> 100 µM (inactive)	> 100 µM (inactive)	> 100 µM (inactive)	> 100 µM (inactive)	> 100 µM (inactive)	> 100 µM (inactive)	> 100 µM (inactive)	> 100 µM (inactive)	> 100 µM (inactive)	> 100 µM (inactive)	> 100 µM (inactive)	> 100 µM (inactive)	> 100 µM (inactive)	> 100 µM (inactive)	> 100 µM (inactive)	> 100 µM (inactive)	> 100 µM (inactive)		> 100 µM (inactive)
c1cc2nsnc2c2c[nH]cc12	24.7 µM (inactive)	64.9 µM (inactive)	> 100 µM (inactive)	> 100 µM (inactive)	26.9 µM (inactive)	> 100 µM (inactive)	> 100 µM (inactive)	40.6 µM (inactive)	> 100 µM (inactive)	99.5 µM (inactive)	> 100 µM (inactive)	56.5 µM (inactive)	61.5 µM (inactive)	> 100 µM (inactive)	> 100 µM (inactive)	52.7 µM (inactive)	> 100 µM (inactive)	> 100 µM (inactive)		> 100 µM (inactive)

— ChEMBL document CHEMBL1201862, “PubChem BioAssay data set” (2004)
